# Reference: US20080220450A1, “Population Based Prediction Methods for Immune Response Determinations and Methods for Verifying Immunological Response Data” (Danisco US, Inc., Genencor Division, priority 2004, published 2008)
# Legend:
# [1] = tested on: CD4+ T-cells and dendritic cells; experiment: I-MUNE assay: CD4+ T-cell proliferation to 15-mer peptide sets presented by dendritic cells; format: cell-based, human; parameters: Structure Value: scale not given here; quantitative response among responders: unit not given here; settings: for Average percent response to epitope peptide: Table 6, repeat tests of the epitope peptide on discrete donor groups; for Response/Peptide: SI>2.95; for effect of substitution on percent of responders to the epitope: peptide #49 variants, 69 donors; for statistical significance of the peptide response: conservative and non-conservative Poisson methods; for response to the peptide: beta-lactamase peptide set, 3× above the background
# Protocol: All peptides were obtained from a commercial source (Mimotopes, San Diego, C-A). For the I-MUNE® assay system described herein, 15-mer peptides offset by 3 amino acids that described the entire sequence of the proteins of interest were synthesized in a multipin format (See, Maeji et al., J. Immunol. Meth., 134:23-33 [1990]). Peptides were resuspended in DMSO at approximately 1 to 2 mg/ml, and stored at −70° C. prior to use. Each peptide was tested at least in duplicate, although for small peptide sets (e.g., Ber e 1), the peptides were routinely tested in triplicate.
# Volunteer donor human blood buffy coat samples were obtained from two commercial sources (Stanford Blood Center, Palo Alto, Calif., and the Sacramento Medical Foundation, Sacramento, Calif.). Buffy coat samples were further purified by density separation. Each sample was HLA typed for HLA-DR and HLA-DQ using a commercial PCR-based kit (Bio-Synthesis).
# Monocytes were purified by adherence to plastic in AIM V medium (Gibco/Life Technologies). Adherent cells were cultured in AIM V media containing 500 units/ml of recombinant human IL-4 (Endogen) and 800 units/ml recombinant human GM-CSF (Endogen) for 5 days. On day 5, recombinant human IL-1α (Endogen) and recombinant human TNF-α (Endogen) were added to 50 units/ml and 0.2 units/ml, respectively. On day 7, the fully matured dendritic cells were treated with 50 μg/ml mitomycin C (Sigma) for 1 hour at 37° C. Treated dendritic cells were dislodged with 50 mM EDTA in PBS, washed in AIM V medium, counted, and resuspended in AIM V media at 2×10^5 cells/ml.
# CD4^+ T-cells were purified by negative selection from frozen aliquots of human peripheral blood mononuclear cells (PBMC) using Cellect CD4 columns (Cedarlane). […] CD4^+ T-cells were resuspended in AIM V media at 2×10^6 cells per ml.
# CD4^+ T-cells and dendritic cells were plated in round-bottomed 96 well format plates at 100 μl of each cell mix per well. Peptide was added to a final concentration of approximately 5 ug/ml in 0.25-0.5% DMSO. Control wells contained 0.5% DMSO without added peptide. Each peptide was tested in duplicate. Cultures were incubated at 37° C., in 5% CO2 for 5 days. On day 5, 0.5 uCi of tritiated thymidine (NEN DuPont) was added to each well. On day 6, the cultures were harvested onto glass fiber mats using a TomTec manual harvester (TomTec), then processed for scintillation counting. Proliferation was assessed by determining the average counts per minute (CPM) value for each set of duplicate wells (TriLux Beta). This method is also described in U.S. Pat. No. 6,218,165 and Stickler et al., J. Immunother. 23: 654-660 (2000), both of which are herein incorporated by reference.
# For each individual buffy coat sample, the average CPM values obtained in the I-MUNE® assay for all of the peptides were analyzed. The average CPM values for each peptide were divided by the average CPM value for the control (DMSO only) wells to determine the “stimulation index” (SI). Donors were tested with each peptide set until an average of at least two responses per peptide were compiled. The data for each protein was graphed showing the percent responders to each peptide within the set. A positive response was collated if the SI value was equal to or greater than 2.95. This value was chosen as it approximates a difference of three standard deviations in a normal population distribution. For each protein assessed, positive responses to individual peptides by individual donors were compiled. To determine the background response for a given protein, the percent responders for each peptide in the set were averaged and a standard deviation was calculated. SI values for each donor were compiled for each peptide set, and the percent of responders reported.
# [2] = target: HLA-DR6(13); experiment: Peptide binding competition assay, HLA class II; parameters: species or system human; settings: competition with standard peptide
# Protocol: In addition to the above I-MUNE® assay, peptide binding assays were also performed. The peptide binding assay used during the development of the present invention is known in the art (Southwood et al., J. Immunol., 160:3363-3373 [1998]). Briefly, HLA-DR and -DQ molecules were purified from a panel of EBV transformed cell lines. A competition assay was performed with a characterized standard peptide, and the unknown peptide. The amount of unknown peptide required to compete 50% of the standard peptide binding was then determined (indicated as the IC50).
# The IC50 for HLA class II protein binding was determined for peptide epitopes defined by the in two related industrial bacterial proteases (See, FIG. 17). The peptides were tested in a competition assay for binding to 18 different HLA-DR and -DQ proteins. […] This likely explains the association seen in the data for a response to this peptide with HLA-DR6(13) donors (p=0.00015; relative risk=7.22, n=113 donors tested). Those results with values less than 500 nM were considered to be good binders and are highlighted in bold in FIG. 17. Also, in this Figure, degeneracy indicates the number of HLA Class II proteins that bind with an IC50 of less than 500 nM out of the 18 total alleles tested.
# [3] = Table 3, Stanford and Sacramento donors
substance,measurement,setting,value
"BPN′ Y217L #24: 15-mer epitope peptide number 24 of BPN′ Y217L, amino acids 70-84 (GTVAALNNSIGVLGV)",Average percent response to epitope peptide,[1],11.69%
same,IC50,[2],0.69 nM
"BPN′ Y217L#37: 15-mer epitope peptide number 37 of BPN′ Y217L, amino acids 109-123 (NGIEWAIANNMDVIN)",Average percent response to epitope peptide,[1],12.91%
Ecotin: serine protease inhibitor from E. coli K12; GenBank Accession No. NP—416713,Background %,[1]; Table 3,5.69%
same,Response/Peptide,[1]; Table 3,3.98
same,Structure Value,[1]; [3],0.64
GTTRLYANASFGLFG (synthetic variant) [I155F],effect of substitution on percent of responders to the epitope,[1],had little effect
GTTRLYANASIGLFG (listed as Enterobacter cloacae) [Peptide #49],statistical significance of the peptide response,[1],reached statistical significance using less conservative analyses
GTTRLYANASLGLFG (synthetic variant) [I155L],effect of substitution on percent of responders to the epitope,[1],had little effect
GTTRLYANASVGLFG (synthetic variant) [I155V],effect of substitution on percent of responders to the epitope,[1],increased the percent of responders to the modified epitope sequence
GTTRSYANASIGLFG (synthetic variant) [L149S],effect of substitution on percent of responders to the epitope,[1],had an effect on the epitope response rate
ITPLMKAQSVPGMAV (listed as Enterobacter cloacae) [Peptide #6],statistical significance of the peptide response,[1],reached statistical significance using less conservative analyses
MLDLATYTAGGLPLQ (listed as Enterobacter cloacae) [Peptide #36],quantitative response among responders,[1]; DR1+ responders,7.8
same,quantitative response among responders,[1]; DR1− responders,4.42
same,response to the peptide,[1],12.11%
same,statistical significance of the peptide response,[1],significant (p<0.05)
TGGFGSYVAFLPEKQ (TGGFGSYVAFIPEKQ; listed as Enterobacter cloacae) [Peptide #107],quantitative response among responders,[1]; DR1+ responders,5.4
same,quantitative response among responders,[1]; DR1− responders,4.2
same,response to the peptide,[1],12.11%
same,statistical significance of the peptide response,[1],significant (p<0.05)
hTpo: human thrombopoietin,"structure value, in words",[1],comparatively high
same,Average Background,[1]; Table 2,2.56
same,Number of epitope regions,[1]; Table 2,1
same,Response per peptide,[1]; Table 2,2.54
same,Structure Value,[1]; Table 2,0.65
same,Background %,[1]; Table 3,2.53%
same,Response/Peptide,[1]; Table 3,2.24
same,Structure Value,[1]; [3],0.65
same,Background +/− sd,"[1]; Table 5, background response value",2.54 +/− 2.23
same,Responses/peptide found,"[1]; Table 5, determined experimentally",2.51
same,Average percent response to epitope peptide,[1],9.18%
